Experiments:
human CRFR1 [1] = biological target: T1, human CRFR1 (Homo sapiens, UniProt P34998); format: binding; settings: for inhibition at 0.5 µM: read-out: Inhibition of [125I]-Tyr0-sauvagine specific binding; for Binding affinity fold lower than that of antalarmin: relative to antalarmin
T1 sequence (P34998 24-415): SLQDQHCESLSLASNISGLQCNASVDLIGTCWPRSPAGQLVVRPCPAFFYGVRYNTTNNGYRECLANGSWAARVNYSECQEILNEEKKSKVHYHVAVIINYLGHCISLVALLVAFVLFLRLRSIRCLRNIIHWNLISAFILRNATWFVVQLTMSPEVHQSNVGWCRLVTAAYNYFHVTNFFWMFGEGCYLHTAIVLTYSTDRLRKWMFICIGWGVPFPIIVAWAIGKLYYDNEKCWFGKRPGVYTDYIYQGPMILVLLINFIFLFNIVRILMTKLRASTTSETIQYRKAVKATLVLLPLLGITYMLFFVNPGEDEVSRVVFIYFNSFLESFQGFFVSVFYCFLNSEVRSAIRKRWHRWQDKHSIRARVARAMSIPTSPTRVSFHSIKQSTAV

human CRFR1 [2] = biological target: T1, human CRFR1

SMILES | Ki (human CRFR1 [1]) [nM] | IC50 (human CRFR1 [2]) [nM] | inhibition at 0.5 µM (human CRFR1 [1]) [%] | Binding affinity fold lower than that of antalarmin (human CRFR1 [1]) [fold] | Times less potent than antalarmin to inhibit CRF-stimulated cAMP accumulation (human CRFR1 [2]; relative to antalarmin) [times]
CCCCN(CC)c1nc(C)nc2c1c(C)c(C)n2-c1c(C)cc(C)cc1C [antalarmin, reference compound] | 16.2 | 26 |  |  | 
CCCCN(CC)c1nc(C)nc2c1sc(=S)n2-c1ccc(OC)cc1OC [5e, 7-(Butyl(ethyl)amino)-3-(2,4-dimethoxyphenyl)-5-methylthiazolo[4,5-d]pyrimidine-2(3H)-thione] | 170 |  | > 50 | 10 | 
CCCCN(CCCC)c1nc(C)nc2c1sc(=S)n2-c1ccc(OC)cc1OC [5d, 7-(Dibutylamino)-3-(2,4-dimethoxyphenyl)-5-methylthiazolo[4,5-d]pyrimidine-2(3H)-thione] | 91.2 |  | > 50 | 6 | 
CCCNc1nc(C)nc2c1sc(=S)n2-c1ccc(OC)cc1OC [5a, 3-(2,4-Dimethoxyphenyl)-5-methyl-7-(propylamino)thiazolo[4,5-d]pyrimidine-2(3H)-thione] |  |  | < 50 |  | 
CCN(CC)c1nc(C)nc2c1sc(=S)n2-c1ccc(OC)cc1OC [5b, 7-(Diethylamino)-3-(2,4-dimethoxyphenyl)-5-methylthiazolo[4,5-d]pyrimidine-2(3H)-thione] | 84.5 |  | > 50 | 5 | 

Second part, the compound after the results:

Ki (human CRFR1 [1]) [nM] | IC50 (human CRFR1 [2]) [nM] | inhibition at 0.5 µM (human CRFR1 [1]) [%] | Binding affinity fold lower than that of antalarmin (human CRFR1 [1]) [fold] | Times less potent than antalarmin to inhibit CRF-stimulated cAMP accumulation (human CRFR1 [2]; relative to antalarmin) [times] | SMILES
32.1 | 2150 | > 50 | 2 | 100 | CCCN(CCC)c1nc(C)nc2c1sc(=O)n2-c1ccc(OC)cc1OC [8c, 3-(2,4-Dimethoxyphenyl)-7-(dipropylamino)-5-methylthiazolo[4,5-d]pyrimidin-2(3H)-one]
 |  | < 50 |  |  | CCCNc1nc(C)nc2c1sc(=O)n2-c1ccc(OC)cc1OC [8a, 3-(2,4-Dimethoxyphenyl)-5-methyl-7-(propylamino)thiazolo[4,5-d]pyrimidin-2(3H)-one]
 |  | < 50 |  |  | CCCCN(CCCC)c1nc(C)nc2c1sc(=O)n2-c1ccc(OC)cc1OC [8d, 7-(Dibutylamino)-3-(2,4-dimethoxyphenyl)-5-methylthiazolo[4,5-d]pyrimidin-2(3H)-one]
 |  | < 50 |  |  | CCN(CC)c1nc(C)nc2c1sc(=O)n2-c1ccc(OC)cc1OC [8b, 7-(Diethylamino)-3-(2,4-dimethoxyphenyl)-5-methylthiazolo[4,5-d]pyrimidin-2(3H)-one]

Reference: publication PMC8387444 (Bioorganic chemistry, 2021)
